# In article PMC4102965 (ACS Chemical Neuroscience, 2014):
# Read-outs that look alike come from different tables or passages of the source. Marks after values point to notes of the source that are not given here.
# Experiments:
# [1] = human; cited from earlier work
# SNL rats = conditions: previously reported; cited from earlier work
# [2] = test system: neuromuscular coordination in rats; experiment: Rotarod test; conditions: for duration (s) 1 h / duration (s) 2 h / duration (s) 3 h: mean (SEM), max 180 s
# [3] = dog; cited from earlier work
# PSL rats = experiment: Anti-allodynia test in PSL; format: in vivo; conditions: 30 mg/kg oral
# [4] = Pharmacokinetics after single oral dosing, plasma and brain by LC-MS/MS; format: in vivo, rats; conditions: male, SD, rat, 30 mg/kg
# [5] = molecular target: gabapentin-binding site (presumably α2-δ subunit proteins) (Rattus norvegicus, UniProt P54290); experiment: [3H]gabapentin-binding assay, rat cerebral cortex membranes
# SNL mice = experiment: Anti-allodynia test in SNL; conditions: 30 mg/kg oral gavage
# gabapentin-binding site (presumably α2-δ subunit proteins), sequence (P54290 25-1091): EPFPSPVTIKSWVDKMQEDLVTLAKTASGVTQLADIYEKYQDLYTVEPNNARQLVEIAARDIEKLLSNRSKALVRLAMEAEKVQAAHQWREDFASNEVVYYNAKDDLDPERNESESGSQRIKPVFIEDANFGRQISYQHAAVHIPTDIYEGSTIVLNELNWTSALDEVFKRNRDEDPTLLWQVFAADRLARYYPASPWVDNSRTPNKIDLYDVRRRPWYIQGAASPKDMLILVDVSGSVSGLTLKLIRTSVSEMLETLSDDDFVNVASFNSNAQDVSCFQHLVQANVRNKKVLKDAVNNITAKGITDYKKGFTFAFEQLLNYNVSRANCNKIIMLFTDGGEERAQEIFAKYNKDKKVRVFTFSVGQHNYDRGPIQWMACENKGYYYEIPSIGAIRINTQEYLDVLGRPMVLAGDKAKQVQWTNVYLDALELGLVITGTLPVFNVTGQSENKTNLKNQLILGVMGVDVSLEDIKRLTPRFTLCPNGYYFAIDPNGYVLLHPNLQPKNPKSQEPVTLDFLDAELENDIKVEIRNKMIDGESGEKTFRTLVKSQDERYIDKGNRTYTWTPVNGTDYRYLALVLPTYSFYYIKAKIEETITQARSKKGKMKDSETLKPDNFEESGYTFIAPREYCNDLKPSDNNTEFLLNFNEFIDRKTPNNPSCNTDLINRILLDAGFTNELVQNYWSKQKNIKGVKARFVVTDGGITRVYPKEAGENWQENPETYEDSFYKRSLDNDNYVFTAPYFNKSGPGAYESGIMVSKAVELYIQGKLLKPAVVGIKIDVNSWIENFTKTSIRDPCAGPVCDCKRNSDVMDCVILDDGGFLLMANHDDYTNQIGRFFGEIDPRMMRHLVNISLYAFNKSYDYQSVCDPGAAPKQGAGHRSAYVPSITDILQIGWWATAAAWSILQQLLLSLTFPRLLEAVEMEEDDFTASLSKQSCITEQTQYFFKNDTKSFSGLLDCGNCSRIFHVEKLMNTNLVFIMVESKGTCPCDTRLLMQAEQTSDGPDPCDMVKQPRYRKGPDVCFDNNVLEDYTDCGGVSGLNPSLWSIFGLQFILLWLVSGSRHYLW
smiles,measurement,setting,value
"CC(C)CC(CN)CC(=O)O (centres unmarked) [pregabalin, 3-isobutyl-γ-aminobutyric acid]",plasma half-life (T1/2),[1],around 6 h
same,effect on pain thresholds on both sides of SNL rats,SNL rats,bilateral hypalgesic activity
same,duration (s) 1 h,[2]; 10 mg/kg oral,180 (0.0) s
same,duration (s) 2 h,[2]; 10 mg/kg oral,160 (19.8) s
same,duration (s) 3 h,"[2]; 10 mg/kg oral, 10 mg/kg",significantly shortened
same,duration (s) 1 h,[2]; 30 mg/kg oral,180 (0.0) s
same,duration (s) 2 h,[2]; 30 mg/kg oral,93 (24.4)^## s
same,duration (s) 3 h,[2]; 30 mg/kg oral,12 (3.7)^## s
same,duration (s) 1 h,[2]; 100 mg/kg oral,53 (11.5)^# s
same,duration (s) 2 h,[2]; 100 mg/kg oral,13 (6.3)^## s
same,duration (s) 3 h,[2]; 100 mg/kg oral,6 (2.1)^## s
same,effect on neuromuscular coordination (duration on the rotating rods),"[2]; oral, over the doses tested",significantly and dose-dependently reduced the duration
same,plasma half-life (T1/2),[3],around 6 h
same,analgesic effects,PSL rats; PSL (Seltzer) rats,significant analgesic effects
same,time at which efficacy on the ipsilateral side peaked,PSL rats; PSL rats,180 min
same,time up to which efficacy on the ipsilateral side was sustained,PSL rats; PSL rats,300 min
same,hypalgesic effect on the contralateral side,"PSL rats; PSL rats, 180 min after administration",remarkable hypalgesic effect
same,concentration at 1 h,[4]; brain,12.4 µM
same,concentration at 1 h,[4]; plasma,109 µM
same,RBA (%),[5]; IC50 of pregabalin divided by IC50 of test compound,100%
same,inhibition at 0.39 µM,[5]; read-out: % inhibition (at μM),79%
same,"antiallodynic activity (pain thresholds, paw withdrawal to von Frey filaments)",SNL mice; SNL mice,significant antiallodynic activity
same,pain thresholds in sham mice (hypalgesic effect),SNL mice; sham mice,significantly increased the pain thresholds in sham mice at the late time point of 180 min
